According to patent US20080025946A1, “INTERLEUKIN 21 AND TYROSINE KINASE INHIBITOR COMBINATION THERAPY” (priority 2006, published 2008):
Read-outs that look alike come from different tables or passages of the source.

How the values were obtained:
[1] = system: murine model of renal adenocarcinoma (RenCa); details: cited from earlier work
RenCa.2 tumor = test: Concurrent mIL-21 and sub-maximal sorafenib: RenCa.2 tumor growth in mice; assay type: in vivo, mouse
Description: Tumor volume was monitored 3×/week for 3 weeks.
Ten-week old female BALB/c mice (Charles River Laboratories) were injected s.c. on the right flank with 0.1×10^6 RenCa.2 cells on Day 0. […] Tumor growth was monitored 3×/week for 3 weeks using caliper measurements. Tumor volume is calculated using the formula ½*(B)2*L (mm3).

RenCa.2 tumors = test: Concurrent mIL-21 and high dose sorafenib: survival of mice bearing RenCa.2 tumors; assay type: in vivo, mouse; details: BALB/c mice, s.c. RenCa; from day 5: 50 μg mIL-21 i.p. 5/9/5 and/or 60 mg/kg sorafenib oral gavage 10 days; n=10/group
Description: Survival of mice receiving the treatments were monitored over 35 days.
Survival of mice were monitored over 35 days.
Ten-week old female BALB/c mice (Charles River Laboratories) were injected s.c. on the right flank with 0.1×10^6 RenCa cells on Day 0. […] Tumor growth was monitored 3×/week for 3 weeks using caliper measurements. Survival of mice were monitored over 35 days. Tumor bearing mice were terminated as per IACUC policies with regard to maximal tumor size (1200 mm^3) or weight loss of >=20% of initial body weight.

[2] = system: RenCa.2 mouse renal cell carcinoma model; details: RenCa.2 model

Row | SMILES | inhibition of tumor growth ([1]; 7.5 mg/kg daily) [%] | inhibition of tumor growth ([1]; 60 mg/kg daily) [%] | inhibition of tumor growth (in words) (RenCa.2 tumor; 25 μg mIL-21 and/or 2 mg/kg sorafenib, RenCa.2 model) | Tumor volume mm3 + SD(Day21) (RenCa.2 tumor; BALB/c mice, s.c. RenCa.2, from day 3: 25 μg mIL-21 i.p. 5 days and/or 2 mg/kg sorafenib oral gavage 10 days, Day 21, n=10/group) | % mice surviving at Day 35 (RenCa.2 tumors) [%] | doses at which partially effective in mediating tumor clearance [2] | doses at which maximally effective in mediating tumor clearance ([2]; sunitinib orally administered)
1 | CNC(=O)c1cc(Oc2ccc(NC(=O)Nc3ccc(Cl)c(C(F)(F)F)c3)cc2)ccn1 [sorafenib] | 30 | 84 | partially effective | 790.3 + 398.8 mm3 | 50 | below 10 mg/kg | 
2 | CCN(CC)CCNC(=O)c1c(C)[nH]c(/C=C2\C(=O)Nc3ccc(F)cc32)c1C [sunitinib] |  |  |  |  |  |  | above 40 mg/kg
